Results from PubChem BioAssay (NCI).
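Five compound concentrations were applied to cells in 96-well plates for 48 hours; endpoints were derived by simple linear interpolation of the resulting dose-response curve. At the GI50, growth is halved. Definition used: TGI = concentration required for complete inhibition of growth.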

How the values were obtained:
Test in all cases: inhibition of tumour cell growth, NCI panel, 48 h
[1] = tested on: COLO 205 colon
[2] = tested on: HCT-116 colon
[3] = tested on: HL-60(TB) leukemia
[4] = tested on: HOP-62 NSCLC
[5] = tested on: HT29 colon
[6] = tested on: NCI-H23 lung
[7] = tested on: RXF 393 renal
[8] = tested on: SF-268 CNS
[9] = tested on: SK-MEL-28 melanoma
[10] = tested on: NCI/ADR-RES ovarian

Compound: CC1=NN(C(=O)c2ccc(Cl)cc2)C(=O)/C1=C/c1ccccc1O
- TGI [1]: > 100 µM
- TGI [2]: > 100 µM
- TGI [3]: > 100 µM
- TGI [4]: > 100 µM
- TGI [5]: > 100 µM
- TGI [6]: > 100 µM
- TGI [7]: > 100 µM
- TGI [8]: > 100 µM
- TGI [9]: > 100 µM

Compound: CN1CCc2c1nc(-c1ccc(Cl)cc1)c1c2N(C)CC1
- TGI [1]: 21.1 µM
- TGI [2]: 18.9 µM
- TGI [3]: 47.4 µM
- TGI [4]: 27.7 µM
- TGI [5]: 45.4 µM
- TGI [6]: 49.9 µM
- TGI [7]: 43.9 µM
- TGI [8]: > 100 µM

Compound: Cc1c(-c2ccnc(N)n2)c2c(n1Cc1ccccc1)C(=O)c1ccccc1C2=O
- GI50 [1]: 15.5 µM
- TGI [1]: 43.9 µM
- GI50 [2]: 3.7 µM
- TGI [2]: 16.6 µM
- GI50 [4]: 13.9 µM
- TGI [4]: 43.6 µM
- GI50 [10]: 13.3 µM
- TGI [10]: > 100 µM
- GI50 [7]: 11.3 µM
- TGI [7]: 38.2 µM
- GI50 [9]: 17.3 µM
- TGI [9]: > 100 µM

Compound: O=C(c1ccccc1)c1c(NCC(O)CN2CCOCC2)n(Cc2ccccc2)c(=O)n(Cc2ccccc2)c1=O (stereo unspecified)
- GI50 [1]: 7.61 µM
- TGI [1]: > 39.1 µM
- GI50 [2]: 34.1 µM
- TGI [2]: > 100 µM
- GI50 [4]: 96.9 µM
- TGI [4]: > 100 µM
- GI50 [5]: 26.4 µM
- TGI [5]: > 62.9 µM
- GI50 [6]: 1.19 µM
- GI50 [10]: 2.17 µM
- TGI [10]: > 27.4 µM
- GI50 [7]: 25.3 µM
- TGI [7]: > 94 µM
- GI50 [8]: > 79.8 µM
- TGI [8]: > 100 µM
- GI50 [9]: > 64.1 µM
- TGI [9]: > 100 µM

Compound: CC(C)(C)OC(=O)NCCCn1c2c(c3ccccc3c1=O)C(=O)c1ccccc1-2
- GI50 [1]: > 100 µM
- TGI [1]: > 100 µM
- GI50 [2]: 4.71 µM
- TGI [2]: 17.8 µM
- GI50 [3]: > 100 µM
- TGI [3]: > 100 µM
- GI50 [4]: 11.8 µM
- TGI [4]: 31.3 µM
- GI50 [6]: 13.4 µM
- TGI [6]: 28.8 µM
- GI50 [10]: 6.69 µM
- TGI [10]: 98.6 µM
- GI50 [8]: 4.56 µM
- TGI [8]: 17.7 µM

Compound: C=CCC1=C(C)C[C@@H]2CCC(=O)C=C12
- TGI [1]: > 100 µM
- TGI [2]: > 100 µM
- TGI [3]: > 100 µM
- TGI [4]: > 100 µM
- TGI [5]: > 100 µM
- TGI [6]: > 100 µM
- TGI [7]: > 100 µM
- TGI [8]: > 100 µM
- TGI [9]: > 100 µM

Compound: COC(=O)c1c2c(cc3c1CC1(Cc4cc5c(c(C(C)=O)c4C1)CCC5)C3)CCC2 (stereo unspecified)
- TGI [1]: > 100 µM
- TGI [2]: > 100 µM
- TGI [3]: 86.4 µM
- TGI [4]: > 100 µM
- TGI [5]: > 100 µM
- TGI [6]: > 100 µM
- TGI [7]: 95.7 µM
- TGI [8]: > 100 µM
- TGI [9]: > 100 µM

Compound: C#Cc1c(C)c(/C=C/C(C)=C/C(=O)OC)n(C)c1C
- TGI [1]: > 100 µM
- TGI [2]: > 100 µM
- TGI [3]: 79.4 µM
- TGI [4]: > 100 µM
- TGI [5]: > 100 µM
- TGI [6]: > 100 µM
- TGI [8]: > 100 µM

Compound: COc1ccc(/C(Cl)=C/c2cc(OC)ccc2OC)cc1
- TGI [1]: > 100 µM
- TGI [2]: > 100 µM
- TGI [3]: 81.8 µM
- TGI [4]: > 100 µM
- TGI [5]: > 100 µM
- TGI [6]: > 100 µM
- TGI [7]: 69.6 µM
- TGI [8]: > 100 µM
- TGI [9]: > 100 µM

Compound: COc1ccc(CCn2c(=O)c3ccccc3n(C)c2=O)cc1
- TGI [1]: 50.1 µM
- TGI [2]: > 100 µM
- TGI [4]: > 100 µM
- TGI [5]: > 100 µM
- TGI [6]: > 100 µM
- TGI [8]: > 100 µM
- TGI [9]: > 100 µM
